The conditions of data set [1]: in the presence of calcium and magnesium ions; MRM 1996, 35, 14-19; cited from earlier work.
For data set [2] the following is noted: biodistribution study; Investigative Radiology 1994, 29(2), S249-S250; cited from earlier work.
For data set [3] the following is noted: 40° C.; 20 MHz; aqueous solution containing 20 mol % calcium ascorbate and 3 eq. of Na^+; cited from earlier work.
Data set [4] is described as follows: Relaxivity in aqueous solution. Type of data set: physicochemical. Particulars: for Relaxivity r1, aqueous solution: 0.15 M NaCl aqueous solution, 20 MHz, 39° C.; for Relaxivity r1 5 MHz, aqueous solution / Relaxivity r1 10 MHz, aqueous solution: same experimental conditions as Table 1. As for the experimental part:
(§1) The relaxivity of the compounds of the invention was measured both in saline solution and in human serum, reconstituted from Seronorm^(R) Human (Nycomed Pharma), lyophilized human serum, and the resulting data are summarized in TABLES 1 and 2.
(§2) TABLE 1 reports the relativity values measured for some compounds of the invention at 20 MHz; the other experimental conditions used are detailed following the table itself.
(§3) TABLE 2 comprises the results obtained from tests carried out under the same experimental conditions as above and in which r1 and r2 relaxivities were measured in serum and in aqueous solution at lower fields, precisely at 5 and 10 MHz. Said data evidence the significant increase in relaxivity obtained in serum already at 5 MHz and are indicative of the potential advantageous use of the compounds of the invention in M.R.I. diagnostic imaging at low fields.

Data set [5] in a line: Relaxivity in human serum reconstituted from Seronorm Human. Particulars: for Relaxivity r1 5 MHz, Seronorm / Relaxivity r1 10 MHz, Seronorm: same experimental conditions as Table 1; for Relaxivity r1, Seronorm Human: calculated between 0 and 1 mM, 20 MHz, 39° C. Type of data set: physicochemical. As for the experimental part:
as §1, §2, §3

Each structure is given as a SMILES string. Where two headings read alike, the source gives them in different places.

In the case of `Cc1ncc(COP(=O)(O)O)c(CN(CCN(CC(=O)[O-])Cc2c(COP(=O)(O)O)cnc(C)c2O)CC(=O)[O-])c1O.[Mn+2].[Na].[Na].[Na]` [Mn-DPDP], the “Stability of the complex in liver homogenate” value in data set [1] was “dissociation”. For the same compound, the “Stability of the complex in vivo” value in data set [2] was “this complex dissociates, releasing manganese which accumulates in liver, pancreas and kidneys”. Besides, the “Relaxivity r1, aqueous solution” value in data set [3] is recorded as 2.8^(5) L.mmol^−1.s^−1.
Turning to `C[NH2+]C[C@H](O)[C@@H](O)[C@H](O)[C@H](O)CO.C[NH2+]C[C@H](O)[C@@H](O)[C@H](O)[C@H](O)CO.O=C([O-])CN(CCN(CC(=O)[O-])[C@H](Cc1ccccc1)C(=O)[O-])CC(=O)[O-].[Mn+2]` [Example 1, Manganese complex of N-[2-[bis(carboxymethyl)-amino]ethyl]-N-(carboxymethyl)-D-phenylalanine salified with 1-deoxy-1-(methylamino)-D-glucitol (1:2)], the “Relaxivity r1, aqueous solution” value in data set [4] (pH 7.3) is recorded as 2.93^6) mM^−1 s^−1. Besides, in data set [4], the “Relaxivity r1 5 MHz, aqueous solution” value was found to be 4.3 mM⁻¹ s⁻¹ and the “Relaxivity r1 10 MHz, aqueous solution” value amounted to 3.7 mM⁻¹ s⁻¹. For the same compound, in data set [5], the “Relaxivity r1 5 MHz, Seronorm” value is 11.8 mM⁻¹ s⁻¹; the “Relaxivity r1 10 MHz, Seronorm” value is 12.8 mM⁻¹ s⁻¹; the “Relaxivity r1, Seronorm Human” value is 15^(7) mM^−1 s^−1.
Consider `C[NH2+]C[C@H](O)[C@@H](O)[C@H](O)[C@H](O)CO.C[NH2+]C[C@H](O)[C@@H](O)[C@H](O)[C@H](O)CO.O=C([O-])CN(CCN(CC(=O)[O-])[C@@H](Cc1ccccc1)C(=O)[O-])[C@@H](Cc1ccccc1)C(=O)[O-].[Mn+2]` [Example 2, Manganese complex of [N,N′-1,2-ethanediylbis [N-(carboxymethyl)-L-phenylalanine]] salified with 1-deoxy-1-(methylamino)-D-glucitol (1:2)], for which, in data set [4] (pH 7.3), the “Relaxivity r1, aqueous solution” value is on record as 3.15^(6) mM^−1 s^−1. For the same compound, in data set [4], the “Relaxivity r1 5 MHz, aqueous solution” value was determined as 4.5 mM⁻¹ s⁻¹ and the “Relaxivity r1 10 MHz, aqueous solution” value was determined as 3.9 mM⁻¹ s⁻¹. In data set [5], the “Relaxivity r1 5 MHz, Seronorm” value worked out at 19.9 mM⁻¹ s⁻¹; the “Relaxivity r1 10 MHz, Seronorm” value was found to be 26.1 mM⁻¹ s⁻¹; the “Relaxivity r1, Seronorm Human” value was 27^(7) mM^−1 s^−1.
With `[Cl][Mn][Cl]` [MnCl2, reference compound], the “Relaxivity r1, aqueous solution” value in data set [4] (pH 4) is 6.59^(2) mM^−1 s^−1. Further, in data set [5] (pH 7.0), the “Relaxivity r1, Seronorm Human” value is 53^(3) mM^−1 s^−1.

These data come from US6337064B1, “Manganese chelates with high relaxivity in serum” (Dibra S.p.A., priority 1998, dated 2002).
